This is an account of results in patent US20110053916A1 (Vertex Pharmaceuticals Incorporated, priority 2009, published 2011).

As usually defined, the Ki is a dissociation constant, usually derived from enzyme kinetics or from competition with a known ligand.

Structures are written as SMILES.

T1 sequence (P9WI81 whole entry): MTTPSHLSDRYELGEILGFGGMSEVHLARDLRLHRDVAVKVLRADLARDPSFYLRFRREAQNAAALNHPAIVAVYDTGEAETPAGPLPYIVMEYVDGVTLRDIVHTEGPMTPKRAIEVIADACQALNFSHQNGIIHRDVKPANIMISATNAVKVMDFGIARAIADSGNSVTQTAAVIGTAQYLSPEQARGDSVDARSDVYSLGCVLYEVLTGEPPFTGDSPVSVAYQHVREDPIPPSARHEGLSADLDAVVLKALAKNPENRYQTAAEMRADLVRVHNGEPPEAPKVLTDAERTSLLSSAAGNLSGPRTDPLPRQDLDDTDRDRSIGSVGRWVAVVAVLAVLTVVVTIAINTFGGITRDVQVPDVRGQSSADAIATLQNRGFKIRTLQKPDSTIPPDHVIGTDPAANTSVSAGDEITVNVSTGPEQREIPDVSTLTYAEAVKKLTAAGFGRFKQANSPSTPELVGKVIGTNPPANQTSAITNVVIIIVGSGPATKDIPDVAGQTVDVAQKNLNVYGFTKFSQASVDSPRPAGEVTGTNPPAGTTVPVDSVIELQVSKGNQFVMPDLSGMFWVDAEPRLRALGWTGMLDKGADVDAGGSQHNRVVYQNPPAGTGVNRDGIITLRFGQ

The first experiment concerns the target T1, PknB (Mycobacterium tuberculosis, UniProt P9WI81).
T1 construct: made in house
The experiment in a line: biochemical. On the set-up: species or system M. tuberculosis. The following applies: 3 nM PknB, 6 uM GarA, 3 μM ATP, 30 min; competitive tight-binding fit; several symbols in a cell = repeat determinations.
Take `O=S(=O)(NCCO)c1ccc(-c2ncc(Cl)c(Nc3cc(C4CC4)[nH]n3)n2)cc1` [Compound 61, 4-[5-chloro-4-[(5-cyclopropyl-1H-pyrazol-3-yl)amino]-pyrimidin-2-yl]-N-(2-hydroxyethyl)benzenesulfonamide]: the “Ki Values” is reported as “A, C, D”. Take `C#Cc1cnc(Nc2ccc(CC#N)cc2)nc1Nc1cc(C2CC2)[nH]n1` [Compound 101, 2-(4-(4-(5-Cyclopropyl-1H-pyrazol-3-ylamino)-5-ethynylpyrimidin-2-ylamino)phenyl)acetonitrile]: the “Ki Values” is reported as “A*, A*, A”.

Take `CCc1cnc(N2CCC(N3CCCCC3)CC2)nc1Nc1cc(C2CC2)[nH]n1` [Compound 44, N-(5-cyclopropyl-1H-pyrazol-3-yl)-5-ethyl-2-[4-(1-piperidyl)-1-piperidyl]-pyrimidin-4-amine]: the “Ki Values” is on record as “C, D”. Same read-out and setting: under `C#Cc1cnc(N2CCCCC2)nc1Nc1cc(C2CC2)n[nH]1` [Compound 172, N-(5-Cyclopropyl-1H-pyrazol-3-yl)-5-ethynyl-2-(piperidin-1-yl)pyrimidin-4-amine] stands “A, B**, B**”. For `O=S(=O)(NCCO)c1cccc(-c2ncc(Cl)c(Nc3cc(C4CC4)[nH]n3)n2)c1` [Compound 95, 3-[5-chloro-4-[(5-cyclopropyl-1H-pyrazol-3-yl)amino]-pyrimidin-2-yl]-N-(2-hydroxyethyl)benzenesulfonamide], the “Ki Values” is listed as “A*, A”. Still for that read-out and setting: in the case of `CC(=O)c1ccc(-c2ncc(Br)c(Nc3cc(C4CC4)[nH]n3)n2)s1` [Compound 165, 1-[5-[5-bromo-4-[(5-cyclopropyl-1H-pyrazol-3-yl)amino]-pyrimidin-2-yl]-2-thienyl]ethanone] it was “A**, A*”.

The experiment is the same for the next values; noted with them: 3 nM PknB, 6 uM GarA, 3 μM ATP, 30 min; competitive tight-binding fit; several symbols in a cell = repeat determinations; read-out: Ki Values.
In the case of `CN(CCO)S(=O)(=O)c1cccc(-c2ncc(Cl)c(Nc3cc(C4CC4)[nH]n3)n2)c1` [Compound 134, 3-[5-chloro-4-[(5-cyclopropyl-1H-pyrazol-3-yl)amino]-pyrimidin-2-yl]-N-(2-hydroxyethyl)-N-methyl-benzenesulfonamide], the Ki fell in the range of 10 to 50 nM. `C#Cc1cnc(N2CC[C@H](NC(C)=O)C2)nc1Nc1cc(C2CC2)n[nH]1` (stereo in doubt) [Compound 195, N-[1-[4-[(5-cyclopropyl-2H-pyrazol-3-yl)amino]-5-ethynyl-pyrimidin-2-yl]pyrrolidin-3-yl]acetamide]: the Ki lay in the range of 2000 to 4000 nM. Still for that read-out and setting: in the case of `NC(=O)c1cc(-c2ncc(F)c(Nc3cc(C4CC4)[nH]n3)n2)ccc1Cl` [Compound 34, 2-chloro-5-[4-[(5-cyclopropyl-1H-pyrazol-3-yl)amino]-5-fluoro-pyrimidin-2-yl]-benzamide] it was 10 to 50 nM; in that of `O=C(O)C(=O)c1ccc(-c2ncc(Cl)c(Nc3cc(C4CC4)[nH]n3)n2)s1` [Compound 190, 2-(5-(5-chloro-4-(5-cyclopropyl-1H-pyrazol-3-ylamino)pyrimidin-2-yl)thiophen-2-yl)-2-oxoacetic acid], 10 to 50 nM.

In the case of `CC(C)(C)NS(=O)(=O)c1ccc(-c2ccc([N+](=O)[O-])c(Nc3cc(C4CC4)n[nH]3)n2)s1` [Compound 274, 5-[6-[(5-cyclopropyl-2H-pyrazol-3-yl)amino]-5-nitro-2-pyridyl]-N-tert-butyl-thiophene-2-sulfonamide], the Ki is 50 to 100 nM.

Regarding `C#Cc1cnc(-c2ccc(C(O)CCO)s2)nc1Nc1cc(C2CC2)[nH]n1` (stereo not drawn) [Compound 242, 1-(5-(4-(5-cyclopropyl-1H-pyrazol-3-ylamino)-5-ethynylpyrimidin-2-yl)thiophen-2-yl)propane-1,3-diol], the Ki was 10 to 50 nM. As for `COCc1cnc(N2CCCCC2)nc1Nc1cc(C2CC2)[nH]n1` [Compound 70, N-(5-cyclopropyl-1H-pyrazol-3-yl)-5-(methoxymethyl)-2-(1-piperidyl)pyrimidin-4-amine], the Ki was above 4000 nM.

On to `NS(=O)(=O)c1ccc(-c2ncc(Cl)c(Nc3cc(C4CC4)[nH]n3)n2)cn1` [Compound 299, 5-[5-chloro-4-[(5-cyclopropyl-1H-pyrazol-3-yl)amino]-pyrimidin-2-yl]pyridine-2-sulfonamide], for which the Ki lay in the range of 10 to 50 nM. Regarding `Cc1cnc(-c2ccc(CC#N)cc2)nc1Nc1cc(C2CC2)[nH]n1` [Compound 24, 2-(4-(4-(5-cyclopropyl-1H-pyrazol-3-ylamino)-5-methylpyrimidin-2-yl)phenyl)acetonitrile], the Ki was in the range of 10 to 50 nM.

Turning to `NS(=O)(=O)c1ccc(-c2nc(CO)cc(Nc3cc(C4CC4)[nH]n3)n2)s1` [Compound 285, 5-[4-[(5-cyclopropyl-1H-pyrazol-3-yl)amino]-6-(hydroxymethyl)pyrimidin-2-yl]thiophene-2-sulfonamide], the Ki lay in the range of 1 to 10 nM. Same read-out and setting: in the case of `NS(=O)(=O)c1ccc(-c2nc(Nc3cc(C4CC4)n[nH]3)c(Cl)c(C3CC3)n2)s1` [Compound 304, 5-(5-chloro-4-cyclopropyl-6-(3-cyclopropyl-1H-pyrazol-5-ylamino)pyrimidin-2-yl)thiophene-2-sulfonamide] it was 1 to 10 nM; in that of `Brc1cnc(-c2ccccc2)nc1Nc1cc(C2CC2)n[nH]1` [Compound 8, 5-Bromo-N-(5-cyclopropyl-1H-pyrazol-3-yl)-2-phenylpyrimidin-4-amine], 100 to 500 nM. Same read-out and setting: in the case of `C#Cc1cnc(-c2ccc(C(O)C(=O)OCC)s2)nc1Nc1cc(C2CC2)[nH]n1` (stereo not drawn) [Compound 233, ethyl 2-[5-[4-[(5-cyclopropyl-1H-pyrazol-3-yl)amino]-5-ethynyl-pyrimidin-2-yl]-2-thienyl]-2-hydroxy-acetate] it was 10 to 50 nM. `N#CCc1ccc(-c2nccc(Nc3cc(C4CC4)[nH]n3)n2)cc1` [Compound 17, 2-(4-(4-(5-cyclopropyl-1H-pyrazol-3-ylamino)pyrimidin-2-yl)phenyl)acetonitrile]: the Ki lay within 10 to 50 nM.

On to `CCCc1cnc(N2CCN(C)CC2)nc1Nc1cc(C2CC2)[nH]n1` [Compound 72, N-(5-cyclopropyl-1H-pyrazol-3-yl)-2-(4-methylpiperazin-1-yl)-5-propyl-pyrimidin-4-amine], for which the Ki was above 4000 nM. Still for that read-out and setting: under `c1csc(-c2nccc(Nc3cc(C4CC4)[nH]n3)n2)c1` [Compound 27, N-(5-cyclopropyl-1H-pyrazol-3-yl)-2-(thiophen-2-yl)pyrimidin-4-amine] stands 10 to 50 nM; under `CC(=O)n1nc(Nc2nc(-c3ccccc3)ncc2N)cc1C1CC1` [Compound 4, 1-[3-[(5-amino-2-phenyl-pyrimidin-4-yl)amino]-5-cyclopropyl-pyrazol-1-yl]ethanone], 100 to 500 nM; under `NS(=O)(=O)c1cccc(-c2ncc(F)c(Nc3cc(C4CC4)[nH]n3)n2)c1` [Compound 35, 3-[4-[(5-cyclopropyl-1H-pyrazol-3-yl)amino]-5-fluoro-pyrimidin-2-yl]benzenesulfonamide], 10 to 50 nM. For `Clc1cnc(-c2ccco2)nc1Nc1cc(C2CC2)[nH]n1` [Compound 164, 5-chloro-N-(5-cyclopropyl-1H-pyrazol-3-yl)-2-(furan-2-yl)pyrimidin-4-amine], the Ki lay in the range of 100 to 500 nM.

As for `C#Cc1cnc(-c2ccc(CC#N)cc2)nc1Nc1cc(C2CC2)[nH]n1` [Compound 85, 2-(4-(4-(5-cyclopropyl-1H-pyrazol-3-ylamino)-5-ethynylpyrimidin-2-yl)phenyl)acetonitrile], the Ki lay within 10 to 50 nM. On the same count and under the same terms, in the case of `NS(=O)(=O)c1ccc(-c2ncc(Cl)c(Nc3cc(C4CC4)[nH]n3)n2)cc1` [Compound 121, 4-[5-chloro-4-[(5-cyclopropyl-1H-pyrazol-3-yl)amino]-pyrimidin-2-yl]benzenesulfonamide] it was 10 to 50 nM; in that of `NS(=O)(=O)c1ccc(-c2ccnc(Nc3cc(C4CC4)n[nH]3)n2)s1` [Compound 315, 5-[2-[(5-cyclopropyl-2H-pyrazol-3-yl)amino]pyrimidin-4-yl]thiophene-2-sulfonamide], 1 to 10 nM; in that of `NS(=O)(=O)c1ccc(-c2nccc(Nc3cc(C4CC4)[nH]n3)n2)s1` [Compound 50, 5-(4-(5-cyclopropyl-1H-pyrazol-3-ylamino)pyrimidin-2-yl)thiophene-2-sulfonamide], 1 to 10 nM.

Turning to `CC(=O)c1ccc(-c2ncc(Cl)c(Nc3cc(C4CC4)[nH]n3)n2)o1` [Compound 288, 1-[5-[5-chloro-4-[(5-cyclopropyl-1H-pyrazol-3-yl)amino]-pyrimidin-2-yl]-2-furyl]ethanone], the Ki lay within 100 to 500 nM.

For the compound `Cc1cc(Nc2ccnc(Nc3ccc(S(N)(=O)=O)cc3)n2)[nH]n1` [Compound 76, 4-[[4-[(5-methyl-2H-pyrazol-3-yl)amino]pyrimidin-2-yl]amino]benzenesulfonamide], the Ki lay in the range of 10 to 50 nM. In the case of `O=C(O)c1ccc(Nc2nccc(Nc3cc(C4CC4)n[nH]3)n2)cc1` [Compound 57, 4-[[4-[(5-cyclopropyl-2H-pyrazol-3-yl)amino]pyrimidin-2-yl]amino]benzoic acid], the Ki lay within 100 to 500 nM. For `CC(C)(C)NS(=O)(=O)c1ccc(-c2ncc(Cl)c(Nc3cc(C4CC4)[nH]n3)n2)cn1` [Compound 302, 5-[5-chloro-4-[(5-cyclopropyl-1H-pyrazol-3-yl)amino]-pyrimidin-2-yl]-N-tert-butyl-pyridine-2-sulfonamide], the Ki was in the range of 10 to 50 nM. Same read-out and setting: under `CC(=O)NCCNS(=O)(=O)c1cccc(-c2ncc(Cl)c(Nc3cc(C4CC4)[nH]n3)n2)c1` [Compound 96, N-[2-[[3-[5-chloro-4-[(5-cyclopropyl-1H-pyrazol-3-yl)amino]-pyrimidin-2-yl]phenyl]sulfonylamino]ethyl]acetamide] stands 10 to 50 nM. On to `C#Cc1cnc(-c2ccc(CO)s2)nc1Nc1cc(C2CC2)[nH]n1` [Compound 196, (5-(4-(5-cyclopropyl-1H-pyrazol-3-ylamino)-5-ethynylpyrimidin-2-yl)thiophen-2-yl)methanol], for which the Ki lay in the range of 10 to 50 nM. Turning to `NS(=O)(=O)c1ccc(-c2nc(Nc3n[nH]c(C4CC4)c3Cl)cc(C(=O)O)n2)s1` [Compound 292, 6-[(4-chloro-5-cyclopropyl-1H-pyrazol-3-yl)amino]-2-(5-sulfamoyl-2-thienyl)-pyrimidine-4-carboxylic acid], the Ki was above 4000 nM.
